Experimental data: PubChem BioAssay (NCI)
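Five compound concentrations were applied to cells in 96-well plates for 48 hours; endpoints were derived by simple linear interpolation of the resulting dose-response curve. The concentration for 50% growth inhibition is given as GI50. TGI is the concentration that stops growth completely.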

Columns and labels:
Test in all cases: NCI-60 cell line screen, 48 h
[1] = tested on: UACC-257 melanoma
[2] = tested on: OVCAR-3 ovarian
[3] = tested on: BT-549 breast
[4] = tested on: HCT-116 colon
[5] = tested on: NCI-H226 lung
[6] = tested on: MOLT-4 leukemia
[7] = tested on: HL-60(TB) leukemia
[8] = tested on: 786-0 renal
[9] = tested on: HCT-15 colon
[10] = tested on: HT29 colon
[11] = tested on: LOX IMVI melanoma
[12] = tested on: M14 melanoma
[13] = tested on: ACHN renal
[14] = tested on: HOP-62 NSCLC
[15] = tested on: HOP-92 NSCLC
[16] = tested on: A498 renal
[17] = tested on: HCC-2998 colon
[18] = tested on: SN12C renal
[19] = tested on: SR leukemia
[20] = tested on: UO-31 renal
[21] = tested on: MALME-3M melanoma
[22] = tested on: CAKI-1 renal
[23] = tested on: K-562 leukemia
[24] = tested on: OVCAR-8 ovarian
[25] = tested on: MCF7 breast
[26] = tested on: UACC-62 melanoma
[27] = tested on: SK-MEL-2 melanoma
[28] = tested on: NCI-H522 lung
[29] = tested on: COLO 205 colon
[30] = tested on: CCRF-CEM leukemia
[31] = tested on: RXF 393 renal
[32] = tested on: SW-620 colon
[33] = tested on: KM12 colon
[34] = tested on: MDA-N
[35] = tested on: RPMI-8226 leukemia
[36] = tested on: PC-3 prostate
[37] = tested on: U251 CNS
[38] = tested on: MDA-MB-435
[39] = tested on: SF-539 CNS
[40] = tested on: NCI/ADR-RES ovarian
[41] = tested on: OVCAR-5 ovarian
[42] = tested on: IGROV1 ovarian
[43] = tested on: SK-MEL-5 melanoma
[44] = tested on: DU-145 prostate
[45] = tested on: SNB-19 CNS
[46] = tested on: NCI-H23 lung
[47] = tested on: NCI-H460 lung
[48] = tested on: EKVX NSCLC
[49] = tested on: SF-295 CNS
[50] = tested on: A549 NSCLC
[51] = tested on: MDA-MB-231 breast
[52] = tested on: OVCAR-4 ovarian
[53] = tested on: SK-MEL-28 melanoma
[54] = tested on: SNB-75 CNS
[55] = tested on: TK-10 renal
[56] = tested on: SK-OV-3 ovarian
[57] = tested on: SF-268 CNS
[58] = tested on: T-47D breast
[59] = tested on: HS 578T breast

c1ccc2c(c1)nn1c3ccc4nonc4c3[n-][n+]21
TGI [1]: > 100 µM
TGI [2]: > 100 µM
TGI [3]: > 100 µM
TGI [4]: > 100 µM
TGI [5]: > 100 µM
TGI [6]: > 100 µM
TGI [7]: > 100 µM
TGI [8]: > 100 µM
TGI [9]: > 100 µM
TGI [10]: > 100 µM
TGI [11]: > 100 µM
TGI [12]: > 100 µM
TGI [13]: > 100 µM
TGI [14]: > 100 µM
TGI [15]: > 100 µM
TGI [16]: > 100 µM
TGI [17]: > 100 µM
TGI [18]: > 100 µM
TGI [19]: > 100 µM
TGI [20]: > 100 µM
TGI [21]: > 100 µM
TGI [22]: > 100 µM
TGI [23]: > 100 µM
TGI [24]: > 100 µM
TGI [25]: > 100 µM
TGI [26]: > 100 µM
TGI [27]: > 100 µM
TGI [28]: > 100 µM
TGI [29]: > 100 µM
TGI [30]: > 100 µM
TGI [31]: > 100 µM
TGI [32]: > 100 µM
TGI [33]: > 100 µM
TGI [34]: > 100 µM
TGI [35]: > 100 µM
TGI [36]: > 100 µM
TGI [37]: > 100 µM
TGI [38]: > 100 µM
TGI [39]: > 100 µM
TGI [40]: > 100 µM
TGI [41]: > 100 µM
TGI [42]: > 100 µM
TGI [43]: > 100 µM
TGI [44]: > 100 µM
TGI [45]: > 100 µM
TGI [46]: > 100 µM
TGI [47]: > 100 µM
TGI [48]: > 100 µM
TGI [49]: > 100 µM
TGI [50]: > 100 µM
TGI [51]: > 100 µM
TGI [52]: > 100 µM
TGI [53]: > 100 µM
TGI [54]: > 100 µM

Cc1cc(C(=O)Nc2n[nH]c3ccccc23)n[nH]1
GI50 [1]: > 100 µM
TGI [1]: > 100 µM
GI50 [2]: > 100 µM
TGI [2]: > 100 µM
GI50 [3]: > 100 µM
TGI [3]: > 100 µM
GI50 [4]: > 100 µM
TGI [4]: > 100 µM
GI50 [5]: > 100 µM
TGI [5]: > 100 µM
GI50 [6]: > 100 µM
TGI [6]: > 100 µM
GI50 [7]: 75.2 µM
TGI [7]: > 100 µM
GI50 [8]: > 100 µM
TGI [8]: > 100 µM
GI50 [55]: > 100 µM
TGI [55]: > 100 µM
GI50 [9]: > 100 µM
TGI [9]: > 100 µM
GI50 [10]: > 100 µM
TGI [10]: > 100 µM
GI50 [11]: > 100 µM
TGI [11]: > 100 µM
GI50 [12]: > 100 µM
TGI [12]: > 100 µM
GI50 [13]: > 100 µM
TGI [13]: > 100 µM
GI50 [14]: > 100 µM
TGI [14]: > 100 µM
GI50 [15]: > 100 µM
TGI [15]: > 100 µM
GI50 [16]: > 100 µM
TGI [16]: > 100 µM
GI50 [17]: 50.6 µM
TGI [17]: > 100 µM
GI50 [18]: > 100 µM
TGI [18]: > 100 µM
GI50 [19]: 80.6 µM
TGI [19]: > 100 µM
GI50 [20]: 50.4 µM
TGI [20]: > 100 µM
GI50 [21]: > 100 µM
TGI [21]: > 100 µM
GI50 [22]: 90.5 µM
TGI [22]: > 100 µM
GI50 [23]: > 100 µM
TGI [23]: > 100 µM
GI50 [24]: > 100 µM
TGI [24]: > 100 µM
GI50 [25]: > 100 µM
TGI [25]: > 100 µM
GI50 [26]: > 100 µM
TGI [26]: > 100 µM
GI50 [27]: > 100 µM
TGI [27]: > 100 µM
GI50 [28]: > 100 µM
TGI [28]: > 100 µM
GI50 [29]: > 100 µM
TGI [29]: > 100 µM
GI50 [30]: > 100 µM
TGI [30]: > 100 µM
GI50 [31]: > 100 µM
TGI [31]: > 100 µM
GI50 [56]: > 100 µM
TGI [56]: > 100 µM
GI50 [32]: > 100 µM
TGI [32]: > 100 µM
GI50 [33]: 28.9 µM
TGI [33]: > 100 µM
GI50 [35]: > 100 µM
TGI [35]: > 100 µM
GI50 [36]: > 100 µM
TGI [36]: > 100 µM
GI50 [37]: > 100 µM
TGI [37]: > 100 µM
GI50 [38]: > 100 µM
TGI [38]: > 100 µM
GI50 [39]: > 100 µM
TGI [39]: > 100 µM
GI50 [40]: > 100 µM
TGI [40]: > 100 µM
GI50 [41]: 67.9 µM
TGI [41]: > 100 µM
GI50 [42]: 32.7 µM
TGI [42]: > 100 µM
GI50 [43]: > 100 µM
TGI [43]: > 100 µM
GI50 [44]: > 100 µM
TGI [44]: > 100 µM
GI50 [57]: > 100 µM
TGI [57]: > 100 µM
GI50 [45]: > 100 µM
TGI [45]: > 100 µM
GI50 [46]: > 100 µM
TGI [46]: > 100 µM
GI50 [47]: > 100 µM
TGI [47]: > 100 µM
GI50 [48]: > 100 µM
TGI [48]: > 100 µM
GI50 [49]: > 100 µM
TGI [49]: > 100 µM
GI50 [50]: > 100 µM
TGI [50]: > 100 µM
GI50 [51]: > 100 µM
TGI [51]: > 100 µM
GI50 [58]: > 100 µM
TGI [58]: > 100 µM
GI50 [59]: > 100 µM
TGI [59]: > 100 µM
GI50 [52]: > 100 µM
TGI [52]: > 100 µM
GI50 [53]: > 100 µM
TGI [53]: > 100 µM
GI50 [54]: 62.6 µM
TGI [54]: > 100 µM
